pEC50: −log10 of the molar value. Converted amounts (≈) assume the structure as drawn.
How the values were obtained:
E. coli CFT073 (UPEC) = assay: MIC, standard microdilution assay, growing UPEC; assay type: cell-based, Escherichia coli; details: Escherichia coli; E. coli, pH 7.4; CA-MHB; read-out: MIC (μM) CA-MHB
Method: (§1) Minimal inhibitory concentrations (MICs) were determined using a standard microdilution assay protocol. CA-MHB medium buffered with 40 mM HEPES (pH 7.4) was used to determine the MICs for UPEC, P. aeruginosa, and S. aureus. […] MICs for UPEC were also determined in LPM buffered with 30 mM MES (pH 5.5). For S. flexneri, MICs were determined in tryptic soy broth (TSB). The assay was performed in triplicates.

non-growing UPEC CFT073 = assay: Dilution-regrowth assay (screen, hit validation, dose-response) on stationary-phase UPEC; assay type: cell-based, Escherichia coli
Method: (§2) The cultures were incubated for 24 h in non-baffled Erlenmeyer flasks at 37 °C with shaking at 200 rpm.
The high-throughput screening (HTS) procedure was based on the protocol by Hazan and colleagues[15] and conducted at the Chemical Biology Consortium Sweden (CBCS) screening facility. […] Each plate included eight wells with 200 nl of 10 mM gatifloxacin, finafloxacin, and kanamycin solutions, along with 8-wells containing 200 nl of DMSO as controls. After 24 h incubation,100 μl of the culture was dispensed into each well of the 384-well plates for screening at a final concentration of 20 μM. The plates were sealed with parafilm and incubated at 37 °C for 24 h in closed humidified boxes, with wet paper towels added to prevent evaporation. […] The plates were incubated at 37 °C for 6 h in humidified boxes, then OD600 was measured using a microplate reader.
For hit validation, bacteria were cultivated, and the dilution-regrowth assay was conducted following the same protocol used in the primary screen. Hit compounds were dispensed into 384-well plates using the Echo® (Labcyte) system, with 200, 100, or 50 nl of a 10 mM solution in DMSO added per well, yielding final screening concentrations of 20, 10, and 5 μM, respectively. OD600 values of regrowing samples were normalized to the mean OD600 of the drug-free control. The testing was conducted in two replicates.
For UPEC, dose–response analysis was conducted at the CBCS screening facility. Bacteria were cultivated, and the dilution-regrowth assay was performed according to the HTS protocol. Compounds were dispensed into 384-well plates using the Echo® (Labcyte) system, and regrowth was assessed by measuring OD600 after 6 h of incubation at 37 °C in humidified boxes. Three biological replicates were performed.
(§3) Statistical significance of the drug effects was assessed using a one-way ANOVA followed by Dunnett’s test, comparing each treatment to the drug-free control. Statistical significance of the differences in chemical characteristics between the hit compounds and the Prestwick library was assessed using a Mann–Whitney test. Statistical significance was set at P ≤ 0.05. A five-parameter logistic equation was used for asymmetric sigmoidal curve fitting and for EC50 and IC50 determination. The Venn diagram in Fig. 1F was prepared using BioVenn web application. Characteristics of the chemical and physical properties of Prestwick library compounds were obtained from Supplementary Table S1 from reference. Characteristics of the hit compounds not included in the Prestwick library were retrieved from the PubChem database.

TC7 cells = assay: TC7 cell viability upon drug exposure, MTS assay; assay type: cell-based; details: at the MIC concentrations, 12 h, no bacteria
Method: TC7 cells were grown to confluence in transparent 96-well cell culture plates (TPP) in the same cell culture medium used for the in vitro infection assay. Just prior to the experiment, the medium was discarded, and the cells were washed twice with sterile PBS to remove any traces of medium or dead cells. […] The plate was incubated at 37 °C in a CO2 incubator for 12 h, under the same conditions as the infection assay.
The 3-(4,5-dimethylthiazol-2-yl)-5-(3-carboxymethoxyphenyl)-2-(4-sulfophenyl)-2H-tetrazolium (MTS) assay was performed using the CellTiter 96® AQueous One Solution Cell Proliferation Assay kit (Promega), according to the manufacturer’s instructions. Briefly, 20 μl of CellTiter 96 AQueous One Solution Reagent was added to each well, and the plate was incubated for 2 h at 37 °C in a CO2 incubator. The OD490 of the samples was measured using a Spark multimode plate reader (Tecan). The raw values were normalized to the control wells incubated with infection buffer only. The experiment was performed in duplicate.

S. aureus DSM2569 = assay: MIC, standard microdilution assay, growing S. aureus; assay type: cell-based, Staphylococcus aureus; details: Staphylococcus aureus, DSM2569; S. aureus; CA-MHB pH 7.4; read-out: MIC (μM) CA-MHB
Method: as §1

P. aeruginosa DSM1117 = assay: MIC, standard microdilution assay, growing P. aeruginosa; assay type: cell-based, Pseudomonas aeruginosa; details: Pseudomonas aeruginosa, DSM1117; P. aeruginosa; CA-MHB pH 7.4; read-out: MIC (μM) CA-MHB
Method: as §1

S. flexneri 5a M90T = assay: MIC in tryptic soy broth, S. flexneri; assay type: cell-based, Shigella flexneri; details: Shigella flexneri, 5AM90T, read-out: MIC (μM) TSB
Method: as §1

[1] = tested on: non-growing S. aureus DSM2569; assay: Dilution-regrowth assay (OD600, start-growth-time) on stationary-phase S. aureus; assay type: cell-based, Staphylococcus aureus; details: S. aureus
Method: The cultures were grown and treated for 24 h in 1:4 CA-MHB (pH 7.4).
This approach allowed us to capture the time when cultures reached a threshold optical density (start-growth-time, SGT[15]).
as §2
For P. aeruginosa and S. aureus, dose–response analysis was conducted in 96-well plates with a 200 μl assay volume, following the procedure used for screening assay validation experiments. […] Stock solutions were prepared and stored according to the manufacturers’ instructions, then diluted in 10% DMSO before use. Cultures were incubated for 24 h in 1:4 diluted CA-MHB medium under the same conditions used for UPEC cultivation. In preliminary experiments, each compound was tested at a concentration of 20 μM in the dilution-regrowth assay with 4 technical replicates. Regrowth was monitored using a microplate reader at 37 °C with continuous shaking, and OD600 was recorded every 20 min. The time at which OD600 exceeded the threshold of 0.12 was recorded as the Start_Growth-Time.
as §3

[2] = tested on: E. coli CFT073 and BW25113; assay: Semapimod assay: killing and regrowth of stationary-phase E. coli in two media; assay type: cell-based, Escherichia coli; details: 1% LB diluted in PBS, 20 and 50 μM, 24 h
Method: E. coli CFT073 and BW25113 were grown in 3 ml of LB at 37 °C, shaking at 200 rpm for 16 h. The overnight cultures were then diluted either 1:100 into 40 ml of 1:4 diluted CA-MHB (40 mM HEPES, pH 7.4) or 1:10,000 into 40 ml of 1% LB in PBS and grown in 125 mL Erlenmeyer flasks for 24 h at 37 °C, shaking at 200 rpm. Following this, 1 ml aliquots of each culture were transferred to 1.5 ml test tubes, and semapimod was added at final concentrations of 20 μM and 50 μM. DMSO was added to drug-free controls. To quantify live bacteria before treatment, a sample of each culture was serially 10-fold diluted into PBS, and 10 μL drops were spot-plated onto LB agar. The closed test tubes were incubated for 24 h at 37 °C without shaking.
After treatment, the samples were diluted 2500-fold in two steps: a 50-fold dilution into PBS, followed by a 50-fold dilution into CA-MHB in a 96-well plate with a total volume of 200 μl per well. The 96-well plate was then incubated in a BioTek Synergy H1 plate reader at 37 °C with continuous shaking at medium speed for 22 h with a lid. OD600 was recorded every 20 min. Additionally, the treated samples were diluted 1:200 into LB in another 96-well plate and incubated in a BioTek Synergy Mx plate reader at 37 °C without shaking for 22 h, with OD600 recorded every hour. […]

SMILES: [H]/N=C(\N/C(=N/[H])NCCCCCCNC(=N)NC(=N)Nc1ccc(Cl)cc1)Nc1ccc(Cl)cc1 [Chlorhexidine]
- MIC (E. coli CFT073 (UPEC)): 1 µM (≈ 0.505 µg/mL)
- Regrowth, OD600 at 6h or 8h after dilution into drug-free medium (average) (non-growing UPEC CFT073; E. coli in 1:4 CA-MHB (pH 7.4), drug concentration 0.25): 0.634
- Regrowth, OD600 at 6h or 8h after dilution into drug-free medium (average) (non-growing UPEC CFT073; E. coli in 1:4 CA-MHB (pH 7.4), drug concentration 0.5): 0.632
- Regrowth, OD600 at 6h or 8h after dilution into drug-free medium (average) (non-growing UPEC CFT073; E. coli in 1:4 CA-MHB (pH 7.4), drug concentration 1): 0.646
- Regrowth, OD600 at 6h or 8h after dilution into drug-free medium (average) (non-growing UPEC CFT073; E. coli in 1:4 CA-MHB (pH 7.4), drug concentration 2.5): 0.634
- Regrowth, OD600 at 6h or 8h after dilution into drug-free medium (average) (non-growing UPEC CFT073; E. coli in 1:4 CA-MHB (pH 7.4), drug concentration 5): 0.636
- Regrowth, OD600 at 6h or 8h after dilution into drug-free medium (average) (non-growing UPEC CFT073; E. coli in 1:4 CA-MHB (pH 7.4), drug concentration 10): 0.585
- Regrowth, OD600 at 6h or 8h after dilution into drug-free medium (average) (non-growing UPEC CFT073; E. coli in 1:4 CA-MHB (pH 7.4), drug concentration 30): 0.062
- Regrowth, OD600 at 6h or 8h after dilution into drug-free medium (average) (non-growing UPEC CFT073; E. coli in LPM (pH 5.5), drug concentration 0.25): 0.602
- Regrowth, OD600 at 6h or 8h after dilution into drug-free medium (average) (non-growing UPEC CFT073; E. coli in LPM (pH 5.5), drug concentration 0.5): 0.598
- Regrowth, OD600 at 6h or 8h after dilution into drug-free medium (average) (non-growing UPEC CFT073; E. coli in LPM (pH 5.5), drug concentration 1): 0.611
- Regrowth, OD600 at 6h or 8h after dilution into drug-free medium (average) (non-growing UPEC CFT073; E. coli in LPM (pH 5.5), drug concentration 2.5): 0.608
- Regrowth, OD600 at 6h or 8h after dilution into drug-free medium (average) (non-growing UPEC CFT073; E. coli in LPM (pH 5.5), drug concentration 5): 0.621
- Regrowth, OD600 at 6h or 8h after dilution into drug-free medium (average) (non-growing UPEC CFT073; E. coli in LPM (pH 5.5), drug concentration 10): 0.624
- Regrowth, OD600 at 6h or 8h after dilution into drug-free medium (average) (non-growing UPEC CFT073; E. coli in LPM (pH 5.5), drug concentration 30): 0.633
- pEC50 (non-growing UPEC CFT073; Escherichia coli, E. coli, pH 7.4, regrowth delay of non-growing bacteria, 1:4 CA-MHB, 24 h treatment, OD600 6 h after 2500-fold dilution, read-out: EC50): 4.76
- activity against non-growing UPEC in LPM (pH 5.5) compared to 1:4 CA-MHB (pH 7.4) (non-growing UPEC CFT073; regrowth delay and killing, Figs. 2 and 3): active at pH 7.4 and completely inactive in the acidic medium
- toxicity to TC7 epithelial cells (TC7 cells): toxic
- MIC (S. aureus DSM2569): 2 µM (≈ 1.01 µg/mL)
- MIC (P. aeruginosa DSM1117): 8 µM (≈ 4.04 µg/mL)
- MIC (S. flexneri 5a M90T): 1 µM (≈ 0.505 µg/mL)
- Regrowth, OD600 at 6h or 8h after dilution into drug-free medium (average) ([1]; drug concentration 0.1): 0.684
- Regrowth, OD600 at 6h or 8h after dilution into drug-free medium (average) ([1]; drug concentration 0.5): 0.683
- Regrowth, OD600 at 6h or 8h after dilution into drug-free medium (average) ([1]; drug concentration 2.5): 0.676
- Regrowth, OD600 at 6h or 8h after dilution into drug-free medium (average) ([1]; drug concentration 10): 0.247
- pEC50 ([1]; Staphylococcus aureus, DSM2569, regrowth delay of non-growing bacteria, 1:4 CA-MHB pH 7.4, 24 h treatment, OD600 8 h after dilution, read-out: EC50): 4.71

SMILES: C/C(=N\NC(=N)N)c1cc(NC(=O)CCCCCCCCC(=O)Nc2cc(/C(C)=N/NC(=N)N)cc(/C(C)=N/NC(=N)N)c2)cc(/C(C)=N/NC(=N)N)c1 [semapimod]
- activity in the dilution-regrowth screen (non-growing UPEC CFT073; non-growing UPEC, 20 μM): not among our hits
- bactericidal activity on stationary-phase E. coli [2]: strong bactericidal activity
